{
  "source": "ChEMBL document CHEMBL5055685",
  "about": "“Discovery of the First Potent IDO1/IDO2 Dual Inhibitors: A Promising Strategy for Cancer Immunotherapy” (J Med Chem, 2021)",
  "key": {"[1]": {"test": "AUC (0 to infinity) in Sprague-Dawley rat at 5 mg/kg, iv", "assay_type": "ADME, organism-based", "parameters": "time infinity, dose 5 mg/kg, route iv", "conditions": "Sprague-Dawley, in vivo"}, "[2]": {"test": "Cmax in Sprague-Dawley rat at 50 mg/kg, po", "assay_type": "ADME, organism-based", "parameters": "dose 50 mg/kg, route po", "conditions": "in vivo"}, "[3]": {"test": "Metabolic stability in human liver microsomes assessed as rate constant", "assay_type": "ADME, Microsome"}, "[4]": {"test": "Intrinsic clearance in monkey liver microsomes", "assay_type": "ADME, Macaca mulatta, Microsome", "conditions": "rhesus monkey, read-out: CLH"}, "[5]": {"test": "Half life in mouse liver microsomes", "assay_type": "ADME, Microsome"}, "[6]": {"test": "Apparent permeability across basolateral to apical side in human Caco-2 cells assessed as drug recovery", "assay_type": "ADME, cell-based", "conditions": "read-out: Drug recovery"}, "[7]": {"test": "Apparent permeability across basolateral to apical side in human Caco-2 cells", "assay_type": "ADME, cell-based"}, "[8]": {"test": "Toxicity in rat assessed as maximum tolerated dose", "assay_type": "organism-based", "conditions": "in vivo"}, "[9]": {"system": "Mus musculus", "test": "Toxicity in BALB/c mouse implanted with mouse CT26 cells assessed as weight loss at 50 mg/kg, ip bid for 28 days", "assay_type": "organism-based", "conditions": "in vivo, 672 h, time 28 day"}, "[10]": {"system": "HCT-116", "test": "Antitumor activity against human HCT-116 cells xenografted in BALB/c nude mouse assessed as tumor growth inhibition at 100 to 300 mg/kg, ig bid for 21 days by vernier caliper method", "assay_type": "functional, organism-based", "conditions": "dose 100-300 mg/kg, time 21.0 day"}, "[11]": {"system": "HCT-116", "test": "Antitumor immunity in BALB/c mouse xenografted with human HCT-116 cells assessed as early Treg cells in tumor-draining lymph nodes by propidium iodide staining based flow cytometry analysis (reference value: 7.24 %)", "assay_type": "functional"}, "[12]": {"biological_target": "Cytoplasmic tyrosine-protein kinase BMX (Homo sapiens) (UniProt P51813)", "sequence (P51813 whole entry)": "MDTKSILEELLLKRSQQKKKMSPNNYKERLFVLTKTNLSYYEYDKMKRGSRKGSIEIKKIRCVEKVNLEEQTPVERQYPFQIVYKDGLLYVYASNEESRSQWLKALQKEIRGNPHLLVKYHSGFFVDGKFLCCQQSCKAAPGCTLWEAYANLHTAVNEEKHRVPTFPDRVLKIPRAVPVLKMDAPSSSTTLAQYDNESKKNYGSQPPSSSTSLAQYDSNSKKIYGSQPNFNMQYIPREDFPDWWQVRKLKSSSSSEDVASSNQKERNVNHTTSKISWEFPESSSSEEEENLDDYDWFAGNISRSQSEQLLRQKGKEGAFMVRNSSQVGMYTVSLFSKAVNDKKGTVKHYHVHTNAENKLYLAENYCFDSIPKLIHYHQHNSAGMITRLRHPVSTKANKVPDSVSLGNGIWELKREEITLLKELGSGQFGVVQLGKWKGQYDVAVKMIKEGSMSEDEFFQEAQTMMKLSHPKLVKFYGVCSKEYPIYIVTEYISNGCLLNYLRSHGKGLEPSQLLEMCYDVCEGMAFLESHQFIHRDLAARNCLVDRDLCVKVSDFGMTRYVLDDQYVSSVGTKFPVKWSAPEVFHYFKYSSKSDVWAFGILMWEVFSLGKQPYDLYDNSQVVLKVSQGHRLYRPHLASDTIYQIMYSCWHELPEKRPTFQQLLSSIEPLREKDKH", "test": "Inhibition of BMX (unknown origin) at 1 uM"}, "[13]": {"biological_target": "Serine/threonine-protein kinase BRSK2 (Homo sapiens) (UniProt Q8IWQ3)", "sequence (Q8IWQ3 whole entry)": "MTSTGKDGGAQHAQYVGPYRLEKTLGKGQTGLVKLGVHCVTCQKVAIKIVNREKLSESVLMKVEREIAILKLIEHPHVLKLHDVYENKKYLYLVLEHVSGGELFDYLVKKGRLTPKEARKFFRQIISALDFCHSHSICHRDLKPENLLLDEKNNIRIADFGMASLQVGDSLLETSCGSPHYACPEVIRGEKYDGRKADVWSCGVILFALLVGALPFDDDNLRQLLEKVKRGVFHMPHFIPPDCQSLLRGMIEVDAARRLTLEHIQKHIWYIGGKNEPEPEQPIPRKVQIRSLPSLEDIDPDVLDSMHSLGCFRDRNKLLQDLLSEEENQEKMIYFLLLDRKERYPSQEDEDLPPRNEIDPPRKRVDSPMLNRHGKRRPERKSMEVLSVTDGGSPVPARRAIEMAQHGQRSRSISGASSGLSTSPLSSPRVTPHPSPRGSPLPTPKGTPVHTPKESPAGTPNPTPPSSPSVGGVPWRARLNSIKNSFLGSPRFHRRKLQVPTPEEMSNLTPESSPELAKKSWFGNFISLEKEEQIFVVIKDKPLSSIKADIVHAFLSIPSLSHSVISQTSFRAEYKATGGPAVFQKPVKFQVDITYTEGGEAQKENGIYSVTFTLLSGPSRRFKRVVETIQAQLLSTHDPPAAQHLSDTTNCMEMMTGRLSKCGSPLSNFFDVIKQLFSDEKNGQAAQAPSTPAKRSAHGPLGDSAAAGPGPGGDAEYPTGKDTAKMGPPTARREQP", "test": "Inhibition of BRSK2 (unknown origin) at 1 uM"}, "[14]": {"biological_target": "Calcium/calmodulin-dependent protein kinase type II subunit alpha (Homo sapiens) (UniProt Q9UQM7)", "sequence (Q9UQM7 whole entry)": "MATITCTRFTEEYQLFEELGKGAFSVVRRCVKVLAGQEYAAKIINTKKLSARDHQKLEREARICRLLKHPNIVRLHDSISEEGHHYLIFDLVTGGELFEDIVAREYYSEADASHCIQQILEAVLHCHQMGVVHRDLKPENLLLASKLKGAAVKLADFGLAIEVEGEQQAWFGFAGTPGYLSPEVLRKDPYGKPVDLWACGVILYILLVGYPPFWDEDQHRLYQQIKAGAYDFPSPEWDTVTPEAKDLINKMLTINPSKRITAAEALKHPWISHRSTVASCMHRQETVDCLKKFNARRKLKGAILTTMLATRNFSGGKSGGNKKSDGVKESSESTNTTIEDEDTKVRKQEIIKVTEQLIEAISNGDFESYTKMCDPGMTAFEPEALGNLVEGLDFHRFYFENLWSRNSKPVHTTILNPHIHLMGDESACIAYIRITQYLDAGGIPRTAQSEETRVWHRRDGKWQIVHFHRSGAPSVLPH", "test": "Inhibition of CAMK2A (unknown origin) at 1 uM"}, "[15]": {"biological_target": "CDK9/Cyclin-T2 (Homo sapiens) (UniProt P50750+O60583)", "test": "Inhibition of CDK9/cyclin-T2 (unknown origin) at 1 uM", "assay_type": "protein-complex assay"}, "[16]": {"biological_target": "Casein kinase I isoform alpha-like (Homo sapiens) (UniProt Q8N752)", "sequence (Q8N752 whole entry, canonical isoform)": "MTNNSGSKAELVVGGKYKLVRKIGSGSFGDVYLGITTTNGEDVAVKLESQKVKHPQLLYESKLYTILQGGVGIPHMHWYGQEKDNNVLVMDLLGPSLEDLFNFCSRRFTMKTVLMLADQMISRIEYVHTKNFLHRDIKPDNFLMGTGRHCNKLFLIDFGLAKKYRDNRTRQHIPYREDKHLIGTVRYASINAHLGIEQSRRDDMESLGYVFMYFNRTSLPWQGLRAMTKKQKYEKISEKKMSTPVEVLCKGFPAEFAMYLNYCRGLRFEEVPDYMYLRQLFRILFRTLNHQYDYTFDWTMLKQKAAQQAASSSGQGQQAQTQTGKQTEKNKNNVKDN", "test": "Inhibition of CK1a1L (unknown origin) at 1 uM"}, "[17]": {"biological_target": "Casein kinase I isoform gamma-1 (Homo sapiens) (UniProt Q9HCP0)", "test": "Inhibition of CK1gamma1 (unknown origin) at 1 uM"}, "[18]": {"biological_target": "Megakaryocyte-associated tyrosine-protein kinase (Homo sapiens) (UniProt P42679)", "test": "Inhibition of CTK (unknown origin) at 1 uM"}, "[19]": {"biological_target": "Serine/threonine-protein kinase DCLK1 (Homo sapiens) (UniProt O15075)", "test": "Inhibition of DCAMKL1 (unknown origin) at 1 uM"}, "[20]": {"biological_target": "Epidermal growth factor receptor (Homo sapiens) (UniProt P00533)", "test": "Inhibition of EGFR (unknown origin) at 1 uM"}, "[21]": {"biological_target": "Receptor tyrosine-protein kinase erbB-2 (Homo sapiens) (UniProt P04626)", "test": "Inhibition of ERBB2 (unknown origin) at 1 uM"}, "[22]": {"biological_target": "Mitogen-activated protein kinase 15 (Homo sapiens) (UniProt Q8TD08)", "test": "Inhibition of ERK7 (unknown origin) at 1 uM"}, "[23]": {"biological_target": "Tyrosine-protein kinase Fgr (Homo sapiens) (UniProt P09769)", "test": "Inhibition of FGR (unknown origin) at 1 uM"}, "[24]": {"biological_target": "Tyrosine-protein kinase FRK (Homo sapiens) (UniProt P42685)", "test": "Inhibition of FRK (unknown origin) at 1 uM"}, "[25]": {"biological_target": "G protein-coupled receptor kinase 5 (Homo sapiens) (UniProt P34947)", "test": "Inhibition of GRK5 (unknown origin) at 1 uM"}, "[26]": {"biological_target": "Mitogen-activated protein kinase kinase kinase kinase 1 (Homo sapiens) (UniProt Q92918)", "test": "Inhibition of HPK1 (unknown origin) at 1 uM"}, "[27]": {"biological_target": "Mitogen-activated protein kinase 10 (Homo sapiens) (UniProt P53779)", "test": "Inhibition of JNK3 (unknown origin) at 1 uM"}, "[28]": {"biological_target": "Serine/threonine-protein kinase LATS1 (Homo sapiens) (UniProt O95835)", "test": "Inhibition of LATS1 (unknown origin) at 1 uM"}, "[29]": {"biological_target": "LIM domain kinase 2 (Homo sapiens) (UniProt P53671)", "test": "Inhibition of LIMK2 (unknown origin) at 1 uM"}, "[30]": {"biological_target": "Tyrosine-protein kinase Lyn (Homo sapiens) (UniProt P07948)", "sequence (P07948 2-512 limits assumed)": "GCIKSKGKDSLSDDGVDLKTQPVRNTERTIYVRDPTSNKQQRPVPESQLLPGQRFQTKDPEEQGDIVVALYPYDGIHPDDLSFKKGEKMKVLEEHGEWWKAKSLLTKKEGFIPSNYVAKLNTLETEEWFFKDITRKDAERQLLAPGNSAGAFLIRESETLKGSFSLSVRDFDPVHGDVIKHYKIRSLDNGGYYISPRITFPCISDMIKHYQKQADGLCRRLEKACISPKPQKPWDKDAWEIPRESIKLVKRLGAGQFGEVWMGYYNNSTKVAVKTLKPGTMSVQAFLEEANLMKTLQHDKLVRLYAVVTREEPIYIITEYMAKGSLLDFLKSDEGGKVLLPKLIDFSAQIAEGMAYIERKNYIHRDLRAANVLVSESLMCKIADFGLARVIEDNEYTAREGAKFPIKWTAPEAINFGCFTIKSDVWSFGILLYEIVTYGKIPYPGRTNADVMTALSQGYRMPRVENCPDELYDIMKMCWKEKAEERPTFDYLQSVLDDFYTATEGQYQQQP", "test": "Inhibition of LYN-B (unknown origin) at 1 uM"}, "[31]": {"biological_target": "Serine/threonine-protein kinase MARK1 (Homo sapiens) (UniProt Q9P0L2)", "test": "Inhibition of MARK1 (unknown origin) at 1 uM"}, "[32]": {"biological_target": "Serine/threonine-protein kinase MARK2 (Homo sapiens) (UniProt Q7KZI7)", "test": "Inhibition of MARK2 (unknown origin) at 1 uM"}, "[33]": {"biological_target": "Maternal embryonic leucine zipper kinase (Homo sapiens) (UniProt Q14680)", "test": "Inhibition of MELK (unknown origin) at 1 uM"}, "[34]": {"biological_target": "Mitogen-activated protein kinase kinase kinase 11 (Homo sapiens) (UniProt Q16584)", "sequence (Q16584 whole entry, looked up)": "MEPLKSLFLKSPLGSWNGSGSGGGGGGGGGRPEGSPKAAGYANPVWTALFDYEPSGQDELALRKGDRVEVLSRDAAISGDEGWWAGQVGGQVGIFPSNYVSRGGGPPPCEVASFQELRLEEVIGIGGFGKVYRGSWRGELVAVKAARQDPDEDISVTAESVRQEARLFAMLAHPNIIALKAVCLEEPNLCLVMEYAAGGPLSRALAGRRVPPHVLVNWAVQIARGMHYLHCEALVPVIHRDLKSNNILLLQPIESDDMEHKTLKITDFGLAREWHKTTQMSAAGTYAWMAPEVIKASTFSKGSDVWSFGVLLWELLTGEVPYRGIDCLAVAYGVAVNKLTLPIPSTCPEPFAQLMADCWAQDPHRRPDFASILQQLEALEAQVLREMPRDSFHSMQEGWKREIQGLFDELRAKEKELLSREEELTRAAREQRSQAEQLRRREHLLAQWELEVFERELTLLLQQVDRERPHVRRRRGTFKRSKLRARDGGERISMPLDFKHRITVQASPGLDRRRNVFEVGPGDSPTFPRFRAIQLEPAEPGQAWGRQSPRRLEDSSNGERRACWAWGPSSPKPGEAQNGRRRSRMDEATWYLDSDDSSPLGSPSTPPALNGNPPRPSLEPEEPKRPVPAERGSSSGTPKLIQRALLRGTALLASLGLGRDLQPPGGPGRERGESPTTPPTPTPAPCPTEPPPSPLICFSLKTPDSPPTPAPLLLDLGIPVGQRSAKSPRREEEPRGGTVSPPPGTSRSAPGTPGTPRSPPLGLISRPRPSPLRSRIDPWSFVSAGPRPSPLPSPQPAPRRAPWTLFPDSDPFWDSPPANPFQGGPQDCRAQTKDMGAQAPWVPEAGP", "test": "Inhibition of MLK3 (unknown origin) at 1 uM"}, "[35]": {"biological_target": "Serine/threonine-protein kinase 24 (Homo sapiens) (UniProt Q9Y6E0)", "test": "Inhibition of MST3 (unknown origin) at 1 uM"}, "[36]": {"biological_target": "Serine/threonine-protein kinase PAK 3 (Homo sapiens) (UniProt O75914)", "test": "Inhibition of PAK3 (unknown origin) at 1 uM"}, "[37]": {"biological_target": "cAMP-dependent protein kinase catalytic subunit beta (Homo sapiens) (UniProt P22694)", "test": "Inhibition of PKAcb (unknown origin) at 1 uM"}, "[38]": {"biological_target": "cAMP-dependent protein kinase catalytic subunit gamma (Homo sapiens) (UniProt P22612)", "test": "Inhibition of PKAcg (unknown origin) at 1 uM"}, "[39]": {"biological_target": "Protein kinase C zeta type (Homo sapiens) (UniProt Q05513)", "test": "Inhibition of PKCzeta (unknown origin) at 1 uM"}, "[40]": {"biological_target": "cGMP-dependent protein kinase 1 (Homo sapiens) (UniProt Q13976)", "test": "Inhibition of PKG1alpha (unknown origin) at 1 uM"}, "[41]": {"biological_target": "Rho-associated protein kinase 2 (Homo sapiens) (UniProt O75116)", "sequence (O75116 whole entry, looked up)": "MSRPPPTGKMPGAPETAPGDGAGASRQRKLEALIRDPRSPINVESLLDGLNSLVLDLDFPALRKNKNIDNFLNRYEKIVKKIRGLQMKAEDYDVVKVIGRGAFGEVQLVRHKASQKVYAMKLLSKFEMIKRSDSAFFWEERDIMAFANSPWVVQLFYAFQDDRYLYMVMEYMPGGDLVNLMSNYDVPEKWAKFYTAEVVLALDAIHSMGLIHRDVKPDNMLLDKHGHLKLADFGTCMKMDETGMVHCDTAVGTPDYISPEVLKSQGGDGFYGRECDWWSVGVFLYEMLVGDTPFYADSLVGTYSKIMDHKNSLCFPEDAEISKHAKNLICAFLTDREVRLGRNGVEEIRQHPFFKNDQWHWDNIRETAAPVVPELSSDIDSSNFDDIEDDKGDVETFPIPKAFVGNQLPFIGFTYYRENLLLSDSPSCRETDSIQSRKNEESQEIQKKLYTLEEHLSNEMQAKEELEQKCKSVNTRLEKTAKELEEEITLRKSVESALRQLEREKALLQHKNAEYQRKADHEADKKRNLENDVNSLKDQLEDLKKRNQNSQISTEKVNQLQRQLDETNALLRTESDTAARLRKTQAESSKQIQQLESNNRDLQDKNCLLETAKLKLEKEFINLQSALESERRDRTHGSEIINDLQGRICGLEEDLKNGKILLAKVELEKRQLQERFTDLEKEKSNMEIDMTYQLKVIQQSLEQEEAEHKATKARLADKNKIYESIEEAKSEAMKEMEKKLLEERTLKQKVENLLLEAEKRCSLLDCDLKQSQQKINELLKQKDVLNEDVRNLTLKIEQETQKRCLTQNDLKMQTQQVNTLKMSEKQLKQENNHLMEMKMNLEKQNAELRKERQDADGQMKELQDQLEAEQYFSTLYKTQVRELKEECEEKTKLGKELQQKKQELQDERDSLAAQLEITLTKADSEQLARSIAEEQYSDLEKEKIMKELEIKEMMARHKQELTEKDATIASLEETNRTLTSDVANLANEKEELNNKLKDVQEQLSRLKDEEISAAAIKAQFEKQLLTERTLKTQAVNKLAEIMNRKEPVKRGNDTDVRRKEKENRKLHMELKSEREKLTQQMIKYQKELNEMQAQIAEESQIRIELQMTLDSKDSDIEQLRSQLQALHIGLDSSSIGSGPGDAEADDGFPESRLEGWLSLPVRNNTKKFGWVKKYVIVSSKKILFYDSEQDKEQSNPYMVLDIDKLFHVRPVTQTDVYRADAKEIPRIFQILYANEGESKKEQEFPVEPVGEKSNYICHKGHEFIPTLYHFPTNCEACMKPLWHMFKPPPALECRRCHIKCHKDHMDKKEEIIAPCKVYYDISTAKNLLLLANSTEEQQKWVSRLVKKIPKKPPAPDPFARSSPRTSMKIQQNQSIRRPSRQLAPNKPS", "test": "Inhibition of ROCK2 (unknown origin) at 1 uM"}, "[42]": {"biological_target": "Macrophage-stimulating protein receptor (Homo sapiens) (UniProt Q04912)", "test": "Inhibition of RON (unknown origin) at 1 uM"}, "[43]": {"biological_target": "Ribosomal protein S6 kinase alpha-6 (Homo sapiens) (UniProt Q9UK32)", "test": "Inhibition of RSK4 (unknown origin) at 1 uM"}, "[44]": {"biological_target": "Serine/threonine-protein kinase SIK2 (Homo sapiens) (UniProt Q9H0K1)", "test": "Inhibition of SIK2 (unknown origin) at 1 uM"}, "[45]": {"biological_target": "Tyrosine-protein kinase Srms (Homo sapiens) (UniProt Q9H3Y6)", "test": "Inhibition of SRMS (unknown origin) at 1 uM"}, "[46]": {"biological_target": "Testis-specific serine/threonine-protein kinase 1 (Homo sapiens) (UniProt Q9BXA7)", "test": "Inhibition of STK22D (unknown origin) at 1 uM"}},
  "note": "Activity calls are given as the source filed them. The rule behind the calls is not given here.",
  "data": [
    {"smiles": "OCCOCc1cn(CCNc2nonc2/C(=N/O)Nc2ccc(F)c(Br)c2)nn1", "values": [
      {"measurement": "AUC(0-inf)", "setting": "[1]", "result": 3050, "unit": "ng·h/mL"},
      {"measurement": "Cmax", "setting": "[2]", "result": 1040, "unit": "ng/mL"},
      {"measurement": "k el", "setting": "[3]", "result": 0.00025, "unit": "s⁻¹"},
      {"measurement": "microsomal CLint", "setting": "[4]", "result": 36, "unit": "µL/min/mg"},
      {"measurement": "half-life", "setting": "[5]", "result": 43.2, "unit": "min"},
      {"measurement": "recovery", "setting": "[6]", "result": 112, "unit": "%"},
      {"measurement": "Papp B→A", "setting": "[7]", "result": 46, "unit": "×10⁻⁶ cm/s"},
      {"measurement": "MTD", "setting": "[8]", "result": 2, "unit": "mg/kg"},
      {"measurement": "Activity", "setting": "[9]", "result": "Non-Toxic"},
      {"measurement": "Activity", "setting": "[10]", "result": "inactive"},
      {"measurement": "Activity", "setting": "[11]", "result": 3.84, "unit": "%"},
      {"measurement": "inhibition", "setting": "[12]", "result": "inactive"},
      {"measurement": "inhibition", "setting": "[13]", "result": "inactive"},
      {"measurement": "inhibition", "setting": "[14]", "result": "inactive"},
      {"measurement": "inhibition", "setting": "[15]", "result": "inactive"},
      {"measurement": "inhibition", "setting": "[16]", "result": "inactive"},
      {"measurement": "inhibition", "setting": "[17]", "result": "inactive"},
      {"measurement": "inhibition", "setting": "[18]", "result": "inactive"},
      {"measurement": "inhibition", "setting": "[19]", "result": "inactive"},
      {"measurement": "inhibition", "setting": "[20]", "result": "inactive"},
      {"measurement": "inhibition", "setting": "[21]", "result": "inactive"},
      {"measurement": "inhibition", "setting": "[22]", "result": "inactive"},
      {"measurement": "inhibition", "setting": "[23]", "result": "inactive"},
      {"measurement": "inhibition", "setting": "[24]", "result": "inactive"},
      {"measurement": "inhibition", "setting": "[25]", "result": "inactive"},
      {"measurement": "inhibition", "setting": "[26]", "result": "inactive"},
      {"measurement": "inhibition", "setting": "[27]", "result": "inactive"},
      {"measurement": "inhibition", "setting": "[28]", "result": "inactive"},
      {"measurement": "inhibition", "setting": "[29]", "result": "inactive"},
      {"measurement": "inhibition", "setting": "[30]", "result": "inactive"},
      {"measurement": "inhibition", "setting": "[31]", "result": "inactive"},
      {"measurement": "inhibition", "setting": "[32]", "result": "inactive"},
      {"measurement": "inhibition", "setting": "[33]", "result": "inactive"},
      {"measurement": "inhibition", "setting": "[34]", "result": "inactive"},
      {"measurement": "inhibition", "setting": "[35]", "result": "inactive"},
      {"measurement": "inhibition", "setting": "[36]", "result": "inactive"},
      {"measurement": "inhibition", "setting": "[37]", "result": "inactive"},
      {"measurement": "inhibition", "setting": "[38]", "result": "inactive"},
      {"measurement": "inhibition", "setting": "[39]", "result": "inactive"},
      {"measurement": "inhibition", "setting": "[40]", "result": "inactive"},
      {"measurement": "inhibition", "setting": "[41]", "result": "inactive"},
      {"measurement": "inhibition", "setting": "[42]", "result": "inactive"},
      {"measurement": "inhibition", "setting": "[43]", "result": "inactive"},
      {"measurement": "inhibition", "setting": "[44]", "result": "inactive"},
      {"measurement": "inhibition", "setting": "[45]", "result": "inactive"},
      {"measurement": "inhibition", "setting": "[46]", "result": "inactive"}
    ]}
  ]
}
